Assay results from patent US10392368B2, “Pyrazolo and triazolo bicyclic compounds as JAK kinase inhibitors” (THERAVANCE BIOPHARMA R&D IP, LLC, priority 2017, dated 2019).
Read-outs that look alike come from different tables or passages of the source.

Experiments:
JAK1 = target: T1, JAK1 (Homo sapiens, UniProt P23458); test: Biochemical JAK1 kinase assay (LanthaScreen); details: for Ki: read-out: JAK 1 (pKi) (converted)
T1 construct: GST; purchased Life Technologies
Method: (§1) A panel of four LanthaScreen JAK biochemical assays (JAK1, 2, 3 and Tyk2) were carried in a common kinase reaction buffer (50 mM HEPES, pH 7.5, 0.01% Brij-35, 10 mM MgCl2, and 1 mM EGTA). Recombinant GST-tagged JAK enzymes and a GFP-tagged STAT1 peptide substrate were obtained from Life Technologies.
(§2) Serially or discretely diluted compounds were pre-incubated with each of the four JAK enzymes and the substrate in white 384-well microplates (Corning) at ambient temperature for 1 h. ATP was subsequently added to initiate the kinase reactions in 10 μL total volume, with 1% DMSO. […] Kinase reactions were allowed to proceed for 1 hour at ambient temperature before a 10 μL preparation of EDTA (10 mM final concentration) and Tb-anti-pSTAT1 (pTyr701) antibody (Life Technologies, 2 nM final concentration) in TR-FRET dilution buffer (Life Technologies) was added. The plates were allowed to incubate at ambient temperature for 1 h before being read on the EnVision reader (Perkin Elmer). Emission ratio signals (520 nm/495 nm) were recorded and utilized to calculate the percent inhibition values based on DMSO and background controls.
(§3) For dose-response analysis, percent inhibition data were plotted vs. compound concentrations, and IC50 values were determined from a 4-parameter robust fit model with the Prism software (GraphPad Software). Results were expressed as pIC50 (negative logarithm of IC50) and subsequently converted to pKi (negative logarithm of dissociation constant, Ki) using the Cheng-Prusoff equation.

JAK3 = target: T2, JAK3 (Homo sapiens, UniProt P52333); test: Biochemical JAK3 kinase assay (LanthaScreen); parameters: GST; purchased Life Technologies; details: for Ki: read-out: JAK 3 (pKi) (converted)
T2 sequence (P52333 1-1124): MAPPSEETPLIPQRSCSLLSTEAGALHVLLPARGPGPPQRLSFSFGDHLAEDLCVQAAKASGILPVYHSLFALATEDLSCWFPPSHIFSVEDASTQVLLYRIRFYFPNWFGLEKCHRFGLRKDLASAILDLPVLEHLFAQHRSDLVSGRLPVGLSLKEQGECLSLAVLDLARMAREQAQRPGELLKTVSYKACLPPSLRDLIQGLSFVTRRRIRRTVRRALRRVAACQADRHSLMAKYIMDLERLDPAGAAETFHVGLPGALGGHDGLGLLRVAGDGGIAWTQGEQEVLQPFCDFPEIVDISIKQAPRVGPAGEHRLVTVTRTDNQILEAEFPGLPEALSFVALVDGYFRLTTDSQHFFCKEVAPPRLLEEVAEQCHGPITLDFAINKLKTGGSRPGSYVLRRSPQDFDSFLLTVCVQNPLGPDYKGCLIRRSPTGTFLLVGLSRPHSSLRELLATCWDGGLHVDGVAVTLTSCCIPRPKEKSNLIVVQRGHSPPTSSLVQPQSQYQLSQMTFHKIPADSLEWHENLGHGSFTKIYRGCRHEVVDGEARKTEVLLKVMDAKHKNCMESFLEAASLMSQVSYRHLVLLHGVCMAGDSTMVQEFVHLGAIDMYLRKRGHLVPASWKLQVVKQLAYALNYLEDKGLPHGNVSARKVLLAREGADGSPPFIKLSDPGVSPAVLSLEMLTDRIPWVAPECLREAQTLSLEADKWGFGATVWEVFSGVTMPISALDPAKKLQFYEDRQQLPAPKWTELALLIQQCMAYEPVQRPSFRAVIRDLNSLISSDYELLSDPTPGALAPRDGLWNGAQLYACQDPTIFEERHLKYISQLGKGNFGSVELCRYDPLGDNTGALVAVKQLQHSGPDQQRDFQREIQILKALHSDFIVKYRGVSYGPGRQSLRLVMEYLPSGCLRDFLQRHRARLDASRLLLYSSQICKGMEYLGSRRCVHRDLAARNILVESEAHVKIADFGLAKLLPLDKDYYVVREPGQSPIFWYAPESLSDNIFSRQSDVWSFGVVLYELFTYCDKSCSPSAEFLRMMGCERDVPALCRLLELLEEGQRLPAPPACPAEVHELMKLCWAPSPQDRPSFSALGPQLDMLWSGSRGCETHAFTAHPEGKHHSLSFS
Method: as §1, §2, §3

[1] = tested on: IL-2 stimulated pSTAT5 in Tall-1 T cells; test: Cellular JAK3 potency assay: inhibition of IL-2 stimulated pSTAT5 in Tall-1 T cells; type: cell-based, human; details: for IC50: Homo sapiens, read-out: Tall-1 (pIC50) (converted)
Method: The potency of test compounds for inhibition of interleukin-2 (IL-2) stimulated STAT5 phosphorylation was measured in the Tall-1 human T cell line (DSMZ) using AlphaLisa. Because IL-2 signals through JAK3, this assay provides a measure of JAK3 cellular potency.
Compounds were serially diluted in DMSO and dispensed acoustically to empty wells. Assay media (phenol red-free DMEM (Life Technologies) supplemented with 10% FBS (ATCC)) was dispensed (4 μL/well) and plates shaken at 900 rpm for 10 mins. Cells were seeded at 45,000 cells/well in assay media (4 μL/well), and incubated at 37° C., 5% CO2 for 1 hour, followed by the addition of IL-2 (R&D Systems; final concentration 300 ng/ml) in pre-warmed assay media (4 μL) for 30 minutes. After cytokine stimulation, cells were lysed with 6 ul of 3× AlphaLisa Lysis Buffer (PerkinElmer) containing 1× PhosStop and Complete tablets (Roche). The lysate was shaken at 900 rpm for 10 minutes at room temperature (RT). Phosphorylated STAT5 was measured via the pSTAT5 AlphaLisa kit (PerkinElmer). Freshly prepared acceptor bead mixture was dispensed onto lysate (5 μL) under green filtered <100 lux light. Plates were shaken at 900 rpm for 2 mins, briefly spun down, and incubated for 2 hrs at RT in the dark. Donor beads were dispensed (5 μL) under green filtered <100 lux light. Plates were shaken at 900 rpm for 2 minutes, briefly spun down, and incubated overnight at RT in the dark.
To determine the inhibitory potency of test compounds in response to IL-2, the average emission intensity of beads bound to pSTAT5 was measured in a human T cell line. IC50 values were determined from analysis of the inhibition curves of signal intensity versus compound concentration. Data are expressed as pIC50 (negative decadic logarithm IC50) values (mean±standard deviation).

[2] = selectivity JAK3 over JAK1, difference of pKi
[3] = TALL-1, IL-2 stimulated pSTAT5, Tall-1 T cells
[4] = selectivity: difference of pKi JAK3 and pKi JAK1
[5] = TALL-1, IL-2 stimulated pSTAT5 in Tall-1 T cells
[6] = IL-2 stimulated pSTAT5, Tall-1 T cells

T1 sequence (P23458 whole entry): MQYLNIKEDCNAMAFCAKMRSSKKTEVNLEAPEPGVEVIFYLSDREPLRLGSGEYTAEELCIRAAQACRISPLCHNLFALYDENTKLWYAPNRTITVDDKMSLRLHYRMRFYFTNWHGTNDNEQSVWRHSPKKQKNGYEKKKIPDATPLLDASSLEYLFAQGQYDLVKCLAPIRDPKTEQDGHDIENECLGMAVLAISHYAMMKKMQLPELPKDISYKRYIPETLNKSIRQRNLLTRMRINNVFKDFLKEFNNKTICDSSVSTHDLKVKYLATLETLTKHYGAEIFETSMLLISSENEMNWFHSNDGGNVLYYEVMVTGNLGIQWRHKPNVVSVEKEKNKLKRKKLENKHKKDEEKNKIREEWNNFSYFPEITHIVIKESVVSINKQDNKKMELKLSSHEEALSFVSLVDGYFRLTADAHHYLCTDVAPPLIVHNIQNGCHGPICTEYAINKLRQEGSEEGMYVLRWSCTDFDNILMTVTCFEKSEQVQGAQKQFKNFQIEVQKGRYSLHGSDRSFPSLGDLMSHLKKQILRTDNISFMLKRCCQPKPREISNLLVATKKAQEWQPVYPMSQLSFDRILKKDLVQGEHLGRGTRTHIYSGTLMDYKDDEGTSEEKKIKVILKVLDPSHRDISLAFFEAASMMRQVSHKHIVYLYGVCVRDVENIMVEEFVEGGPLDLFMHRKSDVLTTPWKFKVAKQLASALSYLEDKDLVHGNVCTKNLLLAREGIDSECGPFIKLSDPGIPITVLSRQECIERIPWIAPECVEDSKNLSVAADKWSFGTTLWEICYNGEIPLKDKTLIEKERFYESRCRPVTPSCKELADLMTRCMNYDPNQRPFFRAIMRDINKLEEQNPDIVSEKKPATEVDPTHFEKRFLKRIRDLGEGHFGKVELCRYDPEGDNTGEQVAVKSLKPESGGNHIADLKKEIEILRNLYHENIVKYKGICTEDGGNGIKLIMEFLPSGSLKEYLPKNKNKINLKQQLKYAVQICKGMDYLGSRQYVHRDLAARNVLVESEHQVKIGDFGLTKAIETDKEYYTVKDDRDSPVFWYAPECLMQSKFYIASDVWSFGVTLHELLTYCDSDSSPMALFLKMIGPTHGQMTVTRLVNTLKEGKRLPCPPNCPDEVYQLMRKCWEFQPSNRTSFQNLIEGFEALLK

Structure (SMILES) | Ki (JAK1) [nM] | Ki (JAK3) [nM] | JAK3 (pKi)-JAK1 (pKi) (JAK3; [2]) | IC50 [1, 3] [nM] | JAK3 (pKi)-JAK1 (pKi) (JAK3; [4]) | IC50 [1, 5] [nM] | JAK 1 (pKi) (JAK1) | JAK 3 (pKi) (JAK3) | Tall-1 (pIC50) [1, 6] | Tall-1 (pIC50) ([1]; IL-2 stimulated pSTAT5 in Tall-1 T cells)
C=CC(=O)N1CCC(Oc2nc(-c3ccc(O)c(Cl)c3)nc3[nH]ncc23)CC1 [Compound 6-22] | > 100 | 0.1 to 1 | A (a value of 3 or above) | 200 to 1000 |  |  |  |  |  | 
C=CC(=O)N1CC[C@H](Oc2cc(-c3ccc(O)c(F)c3)cc3[nH]nc(C)c23)C1 [Compound 1-23] | 10 to 100 | 0.1 to 1 |  |  | B (a value of 2.3 to 3) | < 31.6 |  |  |  | 
C=CC(=O)N1CC(Oc2nc(-c3ccc(O)cc3)nc3[nH]ncc23)C1 [Compound 5-20] |  |  | A (a value of 3 or above) |  |  |  | E (a pKi value of 7 or below (Ki of 100 nM or above)) | B (a pKi value between 9 and 10 (Ki between 1 nM and 0.1 nM)) | C (a pIC50 value between 6 and 6.7 (IC50 between 1 μM and 200 nM)) | 
CN(C)C/C=C/C(=O)N1CC[C@H](COc2cc(-c3ccc(O)cc3)cc3[nH]ncc23)C1 [Compound 2-1] |  |  |  |  | B (a value of 2.3 to 3) |  | D (a pKi value between 7 and 8 (Ki between 100 nM and 10 nM)) | A (a pKi value≥10 (Ki≤0.1 nM)) |  | C (a pIC50 value between 6 and 6.7 (IC50 between 1 μM and 200 nM))
CN(C)CC=CC(=O)N1CCCC(Oc2nc(-c3ccc(O)c(F)c3)cc3[nH]ncc23)C1 (stereo not shown) [Compound 8-9] |  |  | B (a value of 2.3 to 3) |  |  |  | E (a pKi value of 7 or below (Ki of 100 nM or above)) | B (a pKi value between 9 and 10 (Ki between 1 nM and 0.1 nM)) | C (a pIC50 value between 6 and 6.7 (IC50 between 1 μM and 200 nM)) | 
C=CC(=O)N1C2CCC1CC(Oc1nc(-c3ccc(O)c(F)c3)cc3[nH]ncc13)C2 (stereo not shown) [Compound 9-10] |  |  | A (a value of 3 or above) |  |  |  | E (a pKi value of 7 or below (Ki of 100 nM or above)) | B (a pKi value between 9 and 10 (Ki between 1 nM and 0.1 nM)) | A (a pIC50 value≥7.5 (IC50≤32 nM)) | 
C=CC(=O)N1CC[C@H](Oc2nc(-c3ccc(O)cc3)nc3[nH]nc(C(F)F)c23)C1 [Compound 1-25] | > 100 | 0.1 to 1 |  |  | A (a value of 3 or above) | 31.6 to 200 |  |  |  | 
C=CC(=O)N1CCC[C@H](C(=O)Nc2cc(-c3ccc(O)cc3)cc3[nH]ncc23)C1 [Compound 12-56] | > 100 | < 0.1 | A (a value of 3 or above) | 31.6 to 200 |  |  |  |  |  | 
C=CC(=O)N1CC[C@H](Oc2cc(-c3ccc(O)c(F)c3F)cc3[nH]ncc23)C1 [Compound 1-13] | > 100 | 0.1 to 1 |  |  | B (a value of 2.3 to 3) | 31.6 to 200 |  |  |  | 
C=CC(=O)N1CCC(COc2nc(-c3ccc(O)c(F)c3)cc3[nH]ncc23)CC1 [Compound 14-8] |  |  | B (a value of 2.3 to 3) |  |  |  | D (a pKi value between 7 and 8 (Ki between 100 nM and 10 nM)) | A (a pKi value≥10 (Ki≤0.1 nM)) | A (a pIC50 value≥7.5 (IC50≤32 nM)) | 
O=C(/C=C/CN1CCOCC1)N1CC(COc2cc(-c3ccc(O)cc3)cc3[nH]ncc23)C1 [Compound 3-129] | > 100 | 0.1 to 1 |  |  | A (a value of 3 or above) | 200 to 1000 |  |  |  | 
CN(C)C/C=C/C(=O)N1CC[C@@H](COc2cc(-c3ccc(O)cc3)cc3[nH]ncc23)C1 [Compound 12-19] | > 100 | < 0.1 | A (a value of 3 or above) | 200 to 1000 |  |  |  |  |  | 
C=CC(=O)N1CCC[C@H](Oc2nc(-c3ccc(O)c(F)c3)nc3[nH]ncc23)C1 [Compound 8-13] |  |  | A (a value of 3 or above) |  |  |  | E (a pKi value of 7 or below (Ki of 100 nM or above)) | B (a pKi value between 9 and 10 (Ki between 1 nM and 0.1 nM)) | C (a pIC50 value between 6 and 6.7 (IC50 between 1 μM and 200 nM)) | 
C=CC(=O)N1CC[C@H](Oc2cc(-c3cc(F)c(O)cc3F)cc3[nH]nc(C)c23)C1 [Compound 1-30] | 10 to 100 | < 0.1 |  |  | B (a value of 2.3 to 3) | 31.6 to 200 |  |  |  | 
CN(C)CC=CC(=O)N1C2CCC1CC(Oc1cc(-c3ccc(O)c(Cl)c3)cc3[nH]ncc13)C2 (stereo not shown) [Compound 9-3] |  |  | C (a value of 1.8 to 2.3) |  |  |  | E (a pKi value of 7 or below (Ki of 100 nM or above)) | B (a pKi value between 9 and 10 (Ki between 1 nM and 0.1 nM)) | C (a pIC50 value between 6 and 6.7 (IC50 between 1 μM and 200 nM)) | 
C=CC(=O)N1CC[C@H]1COc1cc(-c2ccc(O)cc2)cc2[nH]ncc12 [Compound 12-25] | > 100 | 0.1 to 1 | B (a value of 2.3 to 3) | 200 to 1000 |  |  |  |  |  | 
